# US10208010B2, “Crystal of a heterocyclidene acetamide derivative” (MOCHIDA PHARMACEUTICAL CO., LTD., priority 2017, dated 2019)
# Legend:
# [1] = Solvent suspension test of crystal form mixture; format: physicochemical; details: 25° C.
# Excerpt: (Experimental Example 1) Solvent Suspension Test of Crystal Form Mixture
# [2] = Storage stability test (powder stability); format: physicochemical
# Procedure: (Experimental Example 2) Storage Stability Test
# (§1) After the end of the storage period, the samples were removed, their chemical purities were measured by high performance liquid chromatography, and the crystal forms were confirmed by x-ray powder analysis.
# [3] = Long-term storage stability test (powder stability); format: physicochemical
# Procedure: (Experimental Example 3) Long-Term Storage Stability Test
# as §1
# [4] = Photostability test in accordance with ICH Q1B; format: physicochemical; details: for Stability with respect to light: summary in words of Table 10
# Procedure: (Experimental Example 4) Photostability Test
# After completion of the test, each sample was removed, its chemical purity was measured by high performance liquid chromatography, and the crystal form was confirmed by x-ray powder analysis.
# human TRPV1 = molecular target: T1, human TRPV1 (Homo sapiens, UniProt Q8NER1); test: Measurement of capsaicin-induced Ca influx in human TRPV1-transformed CHO cell line; format: cell-based; details: concentration shifting the capsaicin concentration reaction curve to the right by two times; hTRPV1-CHO cells, FDSS-6000
# T1 construct: expressed in transfected cells
# T1 sequence (Q8NER1 whole entry): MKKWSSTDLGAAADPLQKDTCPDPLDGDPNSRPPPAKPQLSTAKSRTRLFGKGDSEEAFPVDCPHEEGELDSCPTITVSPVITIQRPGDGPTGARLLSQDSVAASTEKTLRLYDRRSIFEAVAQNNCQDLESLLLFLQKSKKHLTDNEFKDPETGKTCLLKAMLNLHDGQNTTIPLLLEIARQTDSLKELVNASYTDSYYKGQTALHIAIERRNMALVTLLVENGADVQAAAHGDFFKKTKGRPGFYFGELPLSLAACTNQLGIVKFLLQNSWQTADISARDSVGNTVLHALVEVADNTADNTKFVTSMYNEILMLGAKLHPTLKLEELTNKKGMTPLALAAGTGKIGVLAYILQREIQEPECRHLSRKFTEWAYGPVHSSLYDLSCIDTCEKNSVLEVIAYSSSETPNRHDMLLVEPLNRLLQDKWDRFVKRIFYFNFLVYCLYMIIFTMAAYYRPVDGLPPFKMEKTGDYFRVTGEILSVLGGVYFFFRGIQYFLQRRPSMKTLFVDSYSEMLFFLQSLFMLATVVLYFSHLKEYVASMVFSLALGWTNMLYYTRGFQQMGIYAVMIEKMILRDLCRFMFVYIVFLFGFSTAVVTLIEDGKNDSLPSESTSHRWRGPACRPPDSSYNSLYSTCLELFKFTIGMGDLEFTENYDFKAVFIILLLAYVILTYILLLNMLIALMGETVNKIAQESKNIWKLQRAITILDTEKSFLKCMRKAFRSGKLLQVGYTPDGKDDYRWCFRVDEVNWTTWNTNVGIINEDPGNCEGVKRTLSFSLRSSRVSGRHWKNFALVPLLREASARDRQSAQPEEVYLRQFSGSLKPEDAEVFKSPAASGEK
# Excerpt: (1) Establishment of Human TRPV1-Transformed CHO Cell Line
# Human vanilloid receptor 1 (hTRPV1) cDNA was cloned from a human brain. The cloned hTRPV1 cDNA was inserted into a pCAGGS vector, which was then genetically introduced into a CHO-K1 cell line to transform the cells. Clones obtained by limiting dilution were stimulated with capsaicin, and clones with a high responsiveness were selected based on increased Ca concentration. The selected clones were then used for the following experiment.
# (2) Measurement of Ca Influx Using FDSS-6000
# Human TRPV1-transformed CHO cells were seeded at a density of 40,000 cells per well on a 96-well plate (black walls, transparent bottom/manufactured by Greiner Bio-One International GmbH). […] Changes in intracellular Ca concentration were measured for 3 minutes after capsaicin stimulus (1 nmol/L to 1 μmol/L) with an FDSS-6000 (λex: 480 nm, λem: 540 nm, Hamamatsu Photonics K.K.). The integral values of the respective intracellular Ca concentration increase rates in the medium group and the group treated with the crystal of the invention were calculated, and capsaicin concentration reaction curves were prepared.
# [5] = 25° C./60% RH, 6 months, sealed
# [6] = 25° C./60% RH, 13 months, sealed
# [7] = 25° C./60% RH, 24 months, sealed
# [8] = 25° C./60% RH, 36 months, sealed
# [9] = 25° C./60% RH, 48 months, sealed
# [10] = 1ICH (10-day test; 1.2 million lux hours and 200 watt hours/m^2 or more at 25° C.)
"Chemical purity (%) ([2]; 25° C./60% RH, 1 month, sealed)","Crystal form ([2]; 25° C./60% RH, 1 month, sealed)","Chemical purity (%) ([2]; 40° C./75% RH, 1 month, sealed)","Crystal form ([2]; 40° C./75% RH, 1 month, sealed)","Chemical purity (%) ([2]; 60° C., 1 month, sealed)","Crystal form ([2]; 60° C., 1 month, sealed)",Chemical purity (%) ([2]; Before test),Crystal form ([2]; Before test),"Chemical purity (%) [4, 10] [%]","Crystal form [4, 10]",Chemical purity (%) ([4]; Before test),Crystal form ([4]; Before test),Compound,Stability with respect to light [4],other results
>99.9,Type I,>99.9,Type I,>99.9,Type I,>99.9,Type I,>99.9,Type I crystal,>99.9,Type I crystal,"O=C(/C=C1\CCOc2cc(C(F)(F)F)ccc21)Nc1cccc2c1C[C@H](O)CC2 [Type I crystal, (E)-2-(7-trifluoromethyl-chroman-4-ylidene)-N-((7R)-7-hydroxy-5,6,7,8-tetrahydronaphthalen-1-yl)acetamide]",extremely high chemical and physical stability,"Thermodynamic stability in suspension [1]: thermodynamically stable in suspension; Chemical purity (%) ([3]; 25° C./60% RH, 3 months, sealed): >99.9%; Chemical purity (%) [3, 5]: >99.9%; Crystal form [3, 5]: Type I; Chemical purity (%) [3, 6]: >99.9%; Crystal form [3, 6]: Type I; Chemical purity (%) [3, 7]: >99.9%; Crystal form [3, 7]: Type I; Chemical purity (%) [3, 8]: >99.9%; Crystal form [3, 8]: Type I; Chemical purity (%) [3, 9]: >99.9%; Crystal form [3, 9]: Type I; Chemical purity (%) ([3]; Before test): >99.9%; Crystal form ([3]; Before test): Type I; Moisture absorption ([3]; during the test periods of Experimental Examples 2 and 3): no moisture absorption; Chemical and physical stability ([3]; test periods of Experimental Examples 2 and 3): chemically and physically stable throughout the test period"
–,–,–,–,–,–,–,–,–,–,–,–,"O=C(/C=C1\CCOc2cc(C(F)(F)F)ccc21)Nc1cccc2c1C[C@H](O)CC2 [Compound (1), (E)-2-(7-trifluoromethyl-chroman-4-ylidene)-N-((7R)-7-hydroxy-5,6,7,8-tetrahydronaphthalen-1-yl)acetamide]",–,A2 value (human TRPV1): A (A less than 100 nmol/L)
>99.9,Type II,>99.9,Type II,>99.9,Type II,>99.9,Type II,98.2,Type II crystal,>99.9,Type II crystal,"O=C(/C=C1\CCOc2cc(C(F)(F)F)ccc21)Nc1cccc2c1C[C@H](O)CC2 [Type II crystal, (E)-2-(7-trifluoromethyl-chroman-4-ylidene)-N-((7R)-7-hydroxy-5,6,7,8-tetrahydronaphthalen-1-yl)acetamide]",unstable with respect to light,–
